Experimental data published in paper PMC9785542, “Discovery of 1-Benzhydryl-Piperazine-Based HDAC Inhibitors with Anti-Breast Cancer Activity: Synthesis, Molecular Modeling, In Vitro and In Vivo Biological Evaluation” (Pharmaceutics, 2022).

Test system: intersegmental blood vessels (ISVs) of Tg(fli1:EGFP) zebrafish embryos
Assay: Anti-angiogenic activity in Tg(fli1:EGFP) zebrafish embryos
Assay type: in vivo
Procedure: The inhibitory activity of 8b on angiogenesis was examined using embryos of the transgenic zebrafish Tg(fli1:EGFP) line with GFP-labeled endothelial cells, as previously described. Briefly, embryos at the 6–8 hpf stage were exposed to three non-toxic concentrations and incubated at 28 °C by 48 hpf. At 48 hpf, the treated embryos were anesthetized with 0.02% tricaine, imaged under a fluorescence microscope (Olympus BX51, Applied Imaging Corp., San Jose, CA, USA), and analyzed for the development of intersegmental blood vessels (ISVs). The experiment was performed three times using ten embryos per concentration. ISV lengths were measured using ImageJ program, and expressed as mean value with standard deviation. Inhibitory effect of the applied treatment was determined in relation to the control (DMSO-treated) group, arbitrarily set to 100%.

O=C(CCCCCCCN1CCN(C(c2ccccc2)c2ccccc2)CC1)NO [Compound 8b, 8-(4-(diphenylmethyl)-piperazin-1-yl)-N-hydroxyoctanamide]
embryos affected in terms of ISV growth (anti-angiogenic phenotype) (6.25 µM, 48 hpf): ~ 60%
toxic response in embryos at anti-angiogenic effective doses (8b 6.25-50 µM, Suten effective dose 1.56 µM): did not elicit any toxic response
ISV inhibition (25 and 50 µM, 48 hpf): majority of ISVs were inhibited
